The source of these data is ChEMBL document CHEMBL4334518, “Discovery and Pharmacological Studies of 4-Hydroxyphenyl-Derived Phosphonium Salts Active in a Mouse Model of Visceral Leishmaniasis” (J Med Chem, 2019).

A word on the EC50: it is the concentration that produces a half-maximal response. Broadly, the half-life is the time in which the quantity being followed falls by half.

Series [1] deals with Leishmania donovani. The experiment in a line: Antileishmanial activity against Leishmania donovani MHOM/ET/67/HU3 intracellular amastigotes infected in human THP1 cells after 96 hrs by prolong-gold antifade-reagent/DAPI staining based assay. The series is classed as functional, organism-based. The conditions noted are these: MHOM/ET/67/HU3, THP-1, 96 h.
The nature of series [2]: Selectivity index, ratio of EC50 for cytotoxicity against human THP1 cells to EC50 for antileishmanial activity against Leishmania donovani MHOM/ET/67/HU3 amastigotes infected in human THP1 cells. Format: toxicity, cell-based. The conditions noted are these: read-out: Ratio EC50.
The nature of series [3]: Selectivity index, ratio of EC50 for cytotoxicity against human MRC5 cells to EC50 for antileishmanial activity against Leishmania donovani MHOM/ET/67/HU3 amastigotes infected in human THP1 cells. Format: toxicity, cell-based. As to conditions: read-out: Ratio EC50.
The subject of series [4] is Leishmania donovani. The experiment in a line: Antileishmanial activity against Leishmania donovani MHOM/ET/67/HU3 promastigote after 72 hrs by MTT assay. The conditions noted are these: MHOM/ET/67/HU3, 72 h. Format: functional, organism-based. (Tetrazolium assays rely on reduction of a dye to a coloured formazan, in cell work by metabolically active cells.)
Series [5] has as its system THP-1. Kind of series: Cytotoxicity against human THP1 cells assessed as reduction in cell viability after 72 hrs by MTT assay. Format: cell-based. The conditions noted are these: THP-1, 72 h.
Series [6] has as its system Leishmania donovani. The experiment in a line: Potency index, ratio of amphotericin B EC50 to test compound EC50 for antileishmanial activity against Leishmania […] amastigote infected in THP1 cells. The series is classed as functional.
Series [7] can be described thus: in vitro. As to conditions: human, microsomes.
Description: Half life in human liver microsomes at 20 to 40 uM measured for 120 mins in presence of NADPH by RP-HPLC analysis
The subject of series [8] is Leishmania infantum. Kind of series: Antileishmanial activity against Leishmania infantum LEM 3049 isolate promastigote after 72 hrs by MTT assay. Format: functional, organism-based.
For series [9], the system named is Leishmania infantum. The experiment in a line: Antileishmanial activity against Sb 3 resistant Leishmania infantum LEM 3329 isolate promastigote after 72 hrs by MTT assay. The series is classed as functional, organism-based.
Series [10] deals with Leishmania infantum. The experiment in a line: Antileishmanial activity against MIL resistant Leishmania infantum LEM 5159 isolate promastigote after 72 hrs by MTT assay. Format: functional, organism-based.
Series [11] relates to Leishmania infantum. The experiment in a line: Antileishmanial activity against MIL/paromomycin resistant Leishmania infantum LEM 2126 isolate promastigote after 72 hrs by MTT assay. Format: functional, organism-based.
Series [12] deals with Leishmania infantum. Kind of series: Antileishmanial activity against Leishmania infantum LEM 3049 isolate intracellular amastigotes infected in human THP1 cells after 96 hrs by prolong-gold antifade-reagent/DAPI staining based assay. Format: functional, organism-based. The conditions noted are these: THP-1, 96 h.
The test system of series [13] is Leishmania infantum. The experiment in a line: Antileishmanial activity against Sb 3 resistant Leishmania infantum LEM 3329 isolate intracellular amastigotes infected in human THP1 cells after 96 hrs by prolong-gold antifade-reagent/DAPI staining based assay. The series is classed as functional, organism-based. As to conditions: THP-1, 96 h.
In series [14] the test system is Leishmania infantum. The experiment in a line: Antileishmanial activity against MIL resistant Leishmania infantum LEM 5159 isolate intracellular amastigotes infected in human THP1 cells after 96 hrs by prolong-gold antifade-reagent/DAPI staining based assay. The conditions noted are these: THP-1, 96 h. Format: functional, organism-based.
In series [15] the test system is Leishmania infantum. The experiment in a line: Antileishmanial activity against MIL/paromomycin resistant Leishmania infantum LEM 2126 isolate intracellular amastigotes infected in human THP1 cells after 96 hrs by prolong-gold antifade-reagent/DAPI staining based assay. Format: functional, organism-based. As to conditions: THP-1, 96 h.

`O=Cc1ccc(OCCCCCCCCCCCCCC[n+]2cccc3ccccc32)cc1O` showed an EC50 in series [1] of 800 nM. For the same molecule, the selectivity ratio in [2] lay in the range of 3.7 to 5.

On to `COC(=O)c1ccc(OCCCCCCCCCCCCCC[P+](c2ccccc2)(c2ccccc2)c2ccccc2)cc1C`, for which, in [1], the EC50 was under 1000 nM. The selectivity ratio in series [3] lay in the range of 2 to 27.

Turning to `Cc1cc(O)ccc1C(=O)CCCCCCCCCCCCCCC[P+](c1ccccc1)(c1ccccc1)c1ccccn1.[Br-]`, the EC50 in series [4] was 280 nM; in [1] it was 100 nM; in series [5], 2110 nM. In series [2], the selectivity ratio was 21.1. For the same molecule, the “Ratio EC50” value in [6] was determined as 2.

As for `O=C(OCCCCCCCCCCCC[P+](c1ccccc1)(c1ccccc1)c1ccccc1)c1ccc(O)cc1O`, the EC50 in series [4] and in [1] was under 1000 nM each time. Besides, the selectivity ratio in series [2] is over 10.

In series [1], `O=Cc1ccc(OCCCCCCCCCCCCCC[P+](c2ccccc2)(c2ccccc2)c2ccccc2)cc1O` had an EC50 of under 1000 nM. Further, the selectivity ratio in [2] lay in the range of 2 to 27.

On to `OCCCCCCCCCCCCCC[P+](c1ccccc1)(c1ccccc1)c1ccccc1`, for which the EC50 is 330 nM in series [4], 350 nM in series [1] and 3050 nM in series [5]. For the same molecule, in [2], the selectivity ratio is 8.7.

For the molecule `O=C(O)Cc1ccccc1Nc1c(Cl)cccc1Cl` [DICLOFENAC], the half-life at 2 h, 40 µM in series [7] is under 30 min.

On to `Cc1cc(O)ccc1C(=O)OCCCCCCCCCCCCCC[P+](c1ccccc1)(c1ccccc1)c1ccccn1`, for which the EC50 in series [4] is 180 nM; in [1] it was 120 nM; in [5] it was 2350 nM. Further, in [2], the selectivity ratio worked out at 19.6.

With `Cc1cc(O)ccc1C(=O)CCCCCCCCCCCCCCC[P+](c1ccccc1)(c1ccccc1)c1ccccc1.[Br-]`, the results for the EC50 in [4], in series [1] and in series [5] were 90 nM, 100 nM and 2450 nM, respectively. The selectivity ratio in series [2] was found to be 24.5. The “Ratio EC50” value in [6] was found to be 2.

Turning to `O=C(O)c1ccc(OCCCCCCCCCCCCCC[P+](c2ccccc2)(c2ccccc2)c2ccccc2)cc1O`, the EC50 in series [4] and in series [1] was under 200 nM in each case. Besides, in series [3], the selectivity ratio is 2 to 27.

Turning to `O=C(O)c1ccc(OCCCCCCCCCC[P+](c2ccccc2)(c2ccccc2)c2ccccc2)cc1O`, the EC50 in [4] and in series [1] was under 200 nM each time. Besides, in series [3], the selectivity ratio was 2 to 27.

As for `O=C(OCCCCCCCCCCCCCC[P+](c1ccccc1)(c1ccccc1)c1ccccc1)c1ccc(O)cc1O`, the figures for the EC50 in [4], in series [1] and in [5] were 40 nM, 110 nM and 3020 nM, respectively. Also, the selectivity ratio in series [2] amounted to 27.6.

For the molecule `CCOC(=O)c1c(C)cc(OCCCCCCCCCCCCCC[P+](c2ccccc2)(c2ccccc2)c2ccccc2)cc1O`, the EC50 in series [1] is under 1000 nM. Moreover, the selectivity ratio in series [3] was in the range of 2 to 27.

`COC(=O)c1ccc(OCCCCCCCCCC[P+](c2ccccc2)(c2ccccc2)c2ccccc2)cc1O` displayed an EC50 in series [1] of under 1000 nM. For the same molecule, the selectivity ratio in series [2] was in the range of 2 to 27.

For `Cc1cc(O)ccc1C(=O)OCCCCCCCCCCCCCC[P+](c1ccccc1)(c1ccccc1)c1ccccc1`, the EC50 was found to be 90 nM in series [4], 150 nM in series [1] and 1840 nM in series [5]. Moreover, the selectivity ratio in series [2] is 12.3.

In the case of `O=C(OCCCCCCCCCCCCCC[n+]1cccc2ccccc21)c1ccc(O)cc1O`, the EC50 in series [4] was under 200 nM; in series [1], 800 nM. Further, the selectivity ratio in [2] was 3.7 to 5.

`O=C(OCCCCCCCCCCCC[n+]1cccc2ccccc21)c1ccc(O)cc1O`: the EC50 is under 200 nM in [4] and 800 nM in series [1]. Moreover, the selectivity ratio in series [2] was 3.7 to 5.

As to `CCCCCCCCCCCCCCCCOP(=O)([O-])OCC[N+](C)(C)C` [MILTEFOSINE], the values for the EC50 in [4], in [1] and in [5] were 6510 nM, 910 nM and 26200 nM, respectively. Further, in series [2], the selectivity ratio is 28.8.

`C[C@@H]1[C@H](O)[C@@H](C)/C=C/C=C/C=C/C=C/C=C/C=C/C=C/[C@H](O[C@@H]2O[C@H](C)[C@@H](O)[C@H](N)[C@@H]2O)C[C@@H]2O[C@](O)(C[C@@H](O)C[C@@H](O)[C@H](O)CC[C@@H](O)C[C@@H](O)CC(=O)O[C@H]1C)C[C@H](O)[C@H]2C(=O)O` [AMPHOTERICIN B]: the EC50 turned out to be 130 nM in series [4]; 240 nM in series [1]; 27800 nM in series [5]; 60 nM in [8]; 70 nM in series [9]; 50 nM in [10]. Moreover, the EC50 was 100 nM in series [11]; 170 nM in series [12]; 180 nM in series [13]; 160 nM in series [14]; 160 nM in [15]. Moreover, in series [2], the selectivity ratio came out at 116.
